The source of these data is ChEMBL document CHEMBL5727681, “Alkoxy compounds for disease treatment” (2020).

The experiment can be described thus: In Vitro Isomerase Inhibition Assay: Isomerase inhibition reactions were performed essentially as described (Stecher et al., J Biol. Chem. 274:8577-85 (1999).

As a reminder, the IC50 is the concentration that gives 50% inhibition. A high value points to a need for much substance.

As for `NCCCc1cccc(OCC2CCCCC2)c1`, the 50% inhibitory concentration (IC50) is less than 0.1 µM.

In turn, `CCC(CC)COc1cccc(CCCN)c1` had an IC50 of less than 0.1 µM.

Compound `NCCOc1cccc(OCC2CCCCCC2)c1` yielded an IC50 of less than 0.1 µM.

The compound `NCCC(O)c1cccc(OCC2(O)CCCCC2)c1` (stereo unspecified) gave an IC50 of less than 0.1 µM.

`CCCC(CCC)COc1cccc(CCCN)c1` had a concentration for half-maximal inhibition (IC50) of less than 0.1 µM.

In the case of `NCCC(=O)c1cccc(OCC2CCCCCC2)c1`, the IC50 is less than 0.1 µM.

`NCCOc1cccc(OCC2CCCCC2)c1` yielded an IC50 of less than 0.1 µM.

`NCCCc1cccc(OCC2(O)CCCCC2)c1` gave an IC50 of less than 0.1 µM.

`NCC(O)Cc1cccc(OCC2CCCCC2)c1` (stereo unspecified): the IC50 is less than 0.1 µM.

The compound `CCCC(O)(CCC)COc1cccc(C(O)CCN)c1` (stereo unspecified) came in with an IC50 of less than 0.1 µM.

`NCCC(=O)c1cccc(OCC2CCCCC2)c1` came in with an IC50 of less than 0.1 µM.
